Here are results for 5 compounds from ChEMBL document CHEMBL3044874, “Synthesis and characterization of some heterocyclic schiff bases: potential anticonvulsant agents” (Med Chem Res, 2011).

The term ED50 denotes the dose that gives a 50% effect, or the effect in half of the subjects. Broadly, the TD50 is the dose at which the toxic effect under study appears in half of the subjects.

For data set [1], the system named is Mus musculus. The experiment in a line: Neurotoxicity against Mus musculus Swiss albino (mouse) at 300 mg/kg, ip measured at 4 hr by rota rod test. It counts as toxicity, organism-based. The settings on record: in vivo. Also on record: dose 300 mg/kg, route intraperitoneal. Background: The rotarod test checks motor coordination on a turning rod.
Data set [2] relates to Mus musculus. The experiment in a line: Neurotoxicity against Mus musculus Swiss albino (mouse) at 300 mg/kg, ip measured at 0.5 hr by rota rod test. Format: toxicity, organism-based. Also on record: dose 300 mg/kg, route intraperitoneal. The settings on record: in vivo.
Data set [3] concerns Mus musculus. The experiment in a line: Anticonvulsant activity in ip dosed Mus musculus Swiss albino (mouse) assessed as protection against pentylenetetrazole-induced seizure. Format: functional.
The test system of data set [4] is Mus musculus. The experiment in a line: Anticonvulsant activity in ip dosed Mus musculus Swiss albino (mouse) assessed as protection against pentylenetetrazole-induced seizure at 4 hr. It counts as functional. The note with it: read-out: MED.
The test system of data set [5] is Mus musculus. The experiment in a line: Anticonvulsant activity in Mus musculus Swiss albino (mouse) assessed as protection against strychnine-induced seizure at 300 mg/kg, ip measured at 0.5 hr. Format: functional, organism-based. Details: dose 300 mg/kg.
Data set [6] deals with Mus musculus. The experiment in a line: Anticonvulsant activity in Mus musculus Swiss albino (mouse) assessed as protection against maximal electroshock-induced seizure at 300 mg/kg, ip measured at 4 hr. Format: functional, organism-based. Details: dose 300 mg/kg. On the technique in general: Protection in the maximal electroshock model is a classic sign of anticonvulsant action.

Data set [7] concerns Mus musculus. The experiment in a line: Anticonvulsant activity in Mus musculus Swiss albino (mouse) assessed as protection against strychnine-induced seizure at 300 mg/kg, ip. It counts as functional, organism-based. Details: dose 300 mg/kg.
The test system of data set [8] is Mus musculus. The experiment in a line: Anticonvulsant activity in Mus musculus Swiss albino (mouse) assessed as protection against strychnine-induced seizure at 300 mg/kg, ip measured at 4 hr. Format: functional, organism-based. Also on record: dose 300 mg/kg.
Data set [9] is described as follows: Protection index, ratio TD50 for neurotoxicity to ED50 for protection against maximal electroshock-induced seizure in Mus musculus Swiss albino (mouse). Format: toxicity, organism-based. The settings on record: in vivo, read-out: Ratio TD50/ED50.
Data set [10] deals with Mus musculus. The experiment in a line: Anticonvulsant activity in Mus musculus Swiss albino (mouse) assessed as protection against maximal electroshock-induced seizure at 300 mg/kg, ip measured at 0.5 hr. It counts as functional, organism-based. Details: dose 300 mg/kg.
Data set [11] is described as follows: Neurotoxicity against ip dosed Mus musculus Swiss albino (mouse) by rota rod test. Format: toxicity, organism-based. The settings on record: in vivo.
Data set [12] relates to Mus musculus. The experiment in a line: Anticonvulsant activity in Mus musculus Swiss albino (mouse) assessed as protection against maximal electroshock-induced seizure at 300 mg/kg, ip. Format: functional, organism-based. Also on record: dose 300 mg/kg.
The test system of data set [13] is Mus musculus. The experiment in a line: Anticonvulsant activity in ip dosed Mus musculus Swiss albino (mouse) assessed as protection against pentylenetetrazole-induced seizure at 0.5 hr. It counts as functional. The settings on record: read-out: MED.
The subject of data set [14] is Mus musculus. The experiment in a line: Neurotoxicity against ip dosed Mus musculus Swiss albino (mouse) at 0.5 hr by rota rod test. Format: toxicity, organism-based. The settings on record: in vivo.
The test system of data set [15] is Mus musculus. The experiment in a line: Anticonvulsant activity in ip dosed Mus musculus Swiss albino (mouse) assessed as protection against strychnine-induced seizure. Format: functional.
In data set [16] the test system is Rattus norvegicus. The experiment in a line: Anticonvulsant activity in Rattus norvegicus Wistar (rat) assessed as protection against maximal electroshock-induced seizure at 30 mg/kg, po measured at 0.25 hr. Format: functional, organism-based. Details: dose 30 mg/kg.
Data set [17] deals with Mus musculus. The experiment in a line: Anticonvulsant activity in ip dosed Mus musculus Swiss albino (mouse) assessed as protection against maximal electroshock-induced seizure at 0.5 hr. Format: functional. The note with it: read-out: MED.
Data set [18] has as its system Rattus norvegicus. The experiment in a line: Anticonvulsant activity in Rattus norvegicus Wistar (rat) assessed as protection against maximal electroshock-induced seizure at 30 mg/kg, po measured at 4 hr. Format: functional, organism-based. Also on record: dose 30 mg/kg.
Data set [19] deals with Mus musculus. The experiment in a line: Anticonvulsant activity in ip dosed Mus musculus Swiss albino (mouse) assessed as protection against maximal electroshock-induced seizure at 4 hr. Format: functional. The settings on record: read-out: MED.
Data set [20] has as its system Mus musculus. The experiment in a line: Anticonvulsant activity in Mus musculus Swiss albino (mouse) assessed as protection against pentylenetetrazole-induced seizure at 300 mg/kg, ip. It counts as functional, organism-based. Details: dose 300 mg/kg.
For data set [21], the system named is Mus musculus. The experiment in a line: Anticonvulsant activity in ip dosed Mus musculus Swiss albino (mouse) assessed as protection against strychnine-induced seizure at 4 hr. It counts as functional. The note with it: read-out: MED.
Data set [22] deals with Rattus norvegicus. The experiment in a line: Anticonvulsant activity in Rattus norvegicus Wistar (rat) assessed as protection against maximal electroshock-induced seizure at 30 mg/kg, po measured at 1 hr. Format: functional, organism-based. Details: dose 30 mg/kg.
Data set [23] deals with Rattus norvegicus. The experiment in a line: Anticonvulsant activity in Rattus norvegicus Wistar (rat) assessed as protection against maximal electroshock-induced seizure at 30 mg/kg, po measured at 2 hr. Format: functional, organism-based. Details: dose 30 mg/kg.
The subject of data set [24] is Rattus norvegicus. The experiment in a line: Anticonvulsant activity in Rattus norvegicus Wistar (rat) assessed as protection against maximal electroshock-induced seizure at 30 mg/kg, po measured at 0.5 hr. Format: functional, organism-based. Details: dose 30 mg/kg.
In data set [25] the test system is Mus musculus. The experiment in a line: Anticonvulsant activity in ip dosed Mus musculus Swiss albino (mouse) assessed as protection against strychnine-induced seizure at 0.5 hr. It counts as functional. The settings on record: read-out: MED.
Data set [26] concerns Mus musculus. The experiment in a line: Anticonvulsant activity in ip dosed Mus musculus Swiss albino (mouse) assessed as protection against maximal electroshock-induced seizure. It counts as functional.
For data set [27], the system named is Mus musculus. The experiment in a line: Neurotoxicity against ip dosed Mus musculus Swiss albino (mouse) at 4 hr by rota rod test. Format: toxicity, organism-based. The note with it: in vivo.

The structures appear in SMILES notation. Calls of active or inactive are those of the source. The rule behind the calls is not given here.

`c1cncc(CN=C2CCCCC2)c1`: the Activity result in the data set with Mus musculus [1] and in the data set on Mus musculus [2] was “Non-toxic” throughout. The ED50 in the data set with Mus musculus [3] is 14.2 mg/kg. In addition, the minimal effective dose with Mus musculus [4] and in the data set with Mus musculus [13] was 30 mg/kg throughout. In addition, the result in the data set on Mus musculus [5], in the data set on Mus musculus [6], in the data set on Mus musculus [7], in the data set with Mus musculus [8], in the data set with Mus musculus [10] and in the data set with Mus musculus [12] was inactive. Further, the selectivity ratio in data set [9] is over 10. In [11], this compound had a TD50 of over 500 mg/kg.

In the case of `CC12CCC(C/C1=N/Cc1cccnc1)C2(C)C` (stereo not given), in the data set on Mus musculus [1], the Activity entry is listed as “Non-toxic”. The ED50 with Mus musculus [3] was 32.2 mg/kg. In addition, the minimal effective dose with Mus musculus [4] is 100 mg/kg; in the data set with Mus musculus [13], 30 mg/kg. Besides, the outcome in the data set with Mus musculus [5], in the data set with Mus musculus [6], in the data set with Mus musculus [7], with Mus musculus [8], in the data set with Mus musculus [10] and in the data set on Mus musculus [12] was inactive. Moreover, in data set [9], the selectivity ratio came to 5.45. Also, in data set [11], the TD50 amounted to 176 mg/kg. Besides, in the data set with Mus musculus [14], the MTC came to 300 mg/kg.

For the compound `O=[N+]([O-])c1ccc(/C=N/Cc2cccnc2)cc1`, the median effective dose (ED50) in the data set with Mus musculus [15] was 22.2 mg/kg; in the data set with Mus musculus [26], 61.4 mg/kg. Moreover, the result with Rattus norvegicus [16], in the data set with Rattus norvegicus [18], with Mus musculus [20], in the data set with Rattus norvegicus [22], in the data set on Rattus norvegicus [23] and with Rattus norvegicus [24] was inactive. The Activity result with Mus musculus [1] and in the data set with Mus musculus [2] was “Non-toxic” each time. Further, the minimal effective dose in the data set with Mus musculus [17] was found to be 100 mg/kg; in the data set on Mus musculus [4], 300 mg/kg; in the data set with Mus musculus [19], 100 mg/kg; in the data set with Mus musculus [21] it was 100 mg/kg; in the data set with Mus musculus [25] it was 30 mg/kg; in the data set with Mus musculus [13], 100 mg/kg. For the same compound, in [9], the selectivity ratio is over 10. The compound also showed a TD50 in [11] of over 500 mg/kg.

Regarding `COc1ccc(/C=N/Cc2cccnc2)cc1OC`, the Activity entry in the data set on Mus musculus [1] and in the data set on Mus musculus [2] was “Non-toxic” each time. The minimal effective dose in the data set with Mus musculus [17] was 300 mg/kg; in the data set with Mus musculus [4], 30 mg/kg; in the data set on Mus musculus [13], 30 mg/kg. In the data set on Mus musculus [3], the ED50 turned out to be 11.7 mg/kg. In addition, the result with Mus musculus [5], in the data set with Mus musculus [6], in the data set with Mus musculus [7], with Mus musculus [8] and in the data set on Mus musculus [12] was inactive. In addition, in [9], the selectivity ratio is over 10. This compound also returned a TD50 in [11] of over 500 mg/kg.

For the compound `C(=N\Cc1cccnc1)/c1c[nH]c2ccccc12`, the minimal effective dose in the data set on Mus musculus [17] is 300 mg/kg; with Mus musculus [4], 30 mg/kg; in the data set with Mus musculus [21] it was 100 mg/kg; in the data set on Mus musculus [25] it was 300 mg/kg; in the data set with Mus musculus [13], 30 mg/kg. In addition, the 50% effective dose (ED50) in the data set on Mus musculus [3] is 6.47 mg/kg. Further, the result in the data set on Mus musculus [6], with Mus musculus [7] and with Mus musculus [12] was inactive. The selectivity ratio in [9] was over 10. The MTC with Mus musculus [27] and in the data set on Mus musculus [14] was 100 mg/kg in each case. Moreover, the TD50 in [11] was over 500 mg/kg.
